This note sets out measurements from BindingDB's records for doi:10.1016/j.bmcl.2019.05.029 (Novira Therapeutics, 2019).

The experiment is described as follows: Binding affinity to capsid protein in Hepatitis B virus infected in human HepG2.2.15 cells assessed as inhibition of HBV DNA replication incubated for 3 days followed by replacement of fresh medium containing compound and measured after 3 days by chemiluminescent assay.
One may read the EC50 as the concentration at which the effect is half-maximal. For the molecule `O=C(Nc1ccc(F)c(Cl)c1)c1ccc(F)c(S(=O)(=O)N2CCCCC(CO)C2)c1` (centres undefined), the 50% effective concentration (EC50) is 0.14 µM.

Turning to `O=C(Nc1ccc(F)c(Cl)c1)c1ccc(F)c(S(=O)(=O)N2CCOCC(O)C2)c1` (centres undefined), the concentration giving a half-maximal response (EC50) was 0.1 µM.

On to `CC1(O)CCCN(S(=O)(=O)c2cc(C(=O)Nc3ccc(F)c(Cl)c3)ccc2F)CC1` (centres undefined), for which the EC50 was found to be 0.11 µM.

Take `CN1CCCN(S(=O)(=O)c2cc(C(=O)Nc3ccc(F)c(Cl)c3)ccc2F)CC1=O`: the EC50 was 0.22 µM.

Consider `O=C(Nc1ccc(F)c(Cl)c1)c1ccc(F)c(S(=O)(=O)N2CCCC(O)CC2)c1` (centres undefined), for which the EC50 stood at 0.14 µM.

For `O=C(Nc1ccc(F)c(Cl)c1)c1ccc(F)c(S(=O)(=O)N2CCCCC(O)C2)c1` (centres undefined), the EC50 stood at 0.17 µM.

On to `O=C(Nc1ccc(F)c(Cl)c1)c1ccc(F)c(S(=O)(=O)N2CCCCC(F)(F)C2)c1`, for which the 50% effective concentration (EC50) is 0.14 µM.

As to `O=C(Nc1ccc(F)c(Cl)c1)c1ccc(F)c(S(=O)(=O)N2CCCCC(O)CC2)c1` (centres undefined), the EC50 turned out to be 0.052 µM.

As to `O=C(Nc1ccc(F)c(Cl)c1)c1ccc(F)c(S(=O)(=O)N2CCCCCC(O)C2)c1` (centres undefined), the 50% effective concentration (EC50) turned out to be 0.06 µM.

Take `CN1CCN(S(=O)(=O)c2cc(C(=O)Nc3ccc(F)c(Cl)c3)ccc2F)CC(O)C1` (centres undefined): the EC50 is 0.47 µM.

For the molecule `CC1(O)COCCN(S(=O)(=O)c2cc(C(=O)Nc3ccc(F)c(Cl)c3)ccc2F)C1` (centres undefined), the EC50 is 0.1 µM.

In the case of `O=C(Nc1ccc(F)c(Cl)c1)c1ccc(F)c(S(=O)(=O)N2CCSCC(O)C2)c1` (centres undefined), the half-maximal effective concentration (EC50) worked out at 0.17 µM.

For `O=C(Nc1ccc(F)c(Cl)c1)c1ccc(F)c(S(=O)(=O)N2CCOCC(F)C2)c1` (centres undefined), the concentration giving a half-maximal response (EC50) is 0.08 µM.

Consider `O=C(Nc1ccc(F)c(Cl)c1)c1ccc(F)c(S(=O)(=O)N2CCOC[C@H](O)C2)c1`, for which the EC50 worked out at 0.063 µM.

With `CC1(O)CCCCN(S(=O)(=O)c2cc(C(=O)Nc3ccc(F)c(Cl)c3)ccc2F)C1` (centres undefined), the EC50 came out at 0.12 µM.

With `O=C(Nc1ccc(F)c(Cl)c1)c1ccc(F)c(S(=O)(=O)N2CCCCCCC2O)c1` (centres undefined), the half-maximal effective concentration (EC50) was 0.12 µM.

With `COC1COCCN(S(=O)(=O)c2cc(C(=O)Nc3ccc(F)c(Cl)c3)ccc2F)C1` (centres undefined), the concentration giving a half-maximal response (EC50) is 0.13 µM.

With `O=C(Nc1ccc(F)c(Cl)c1)c1ccc(F)c(S(=O)(=O)N2CCOC[C@@H](O)C2)c1`, the half-maximal effective concentration (EC50) came to 0.14 µM.

`CC(O)C1CCCCN(S(=O)(=O)c2cc(C(=O)Nc3ccc(F)c(Cl)c3)ccc2F)C1` (centres undefined): the EC50 is 0.14 µM.
